System: 24 h food-deprived Wistar rats
Test: Acute feeding study: cumulative food intake after i.p. or oral administration
Format: in vivo
Procedure: The experiments were performed on male Wistar rats weighing 300-350 g. The animals were housed individually under a 12 h light/dark cycle in a room with temperature and humidity control. The rats had ad libitum access to food and water, except during the feeding studies. Prior to the experiments, animals were acclimated to the handling.
For the acute feeding studies, the nanoemulsion G-F68 or Tween 20 were prepared in 5% in saline.
Regarding the acute studies with OEA, the drug was obtained from Tocris Bioscience (Bristol, UK). It was administered in a solution contained the nanoemulsion G-F68 (5%) and saline (95%) prepared in fresh the same day of the experiment. The doses tested were: • a) 1, 5 and 10 mg/kg of OEA for the intraperitoneal acute studies. The volume of the administration was 1 ml/kg. • b) 1, 10 and 50 mg/kg of OEA for the oral acute studies. The volume of the administration was 3 ml/kg.
The hypophagic actions of the N-acylethanolamine OEA were evaluated using the nanoemulsion G-F68 as delivery system (vehicle). For these experiments, we used animals habituated to the experimental protocols. To this end, 48 h before each experiment, the bedding was removed and replaced by small food containers into the cage for 4 h. After this initial phase, the animals were deprived of food for 24 h, but had free access to water. The different treatments were administered 15 min prior access to food. Animals were then returned to their home cages and a measured amount of food (30-40 g) was placed into the cages (t = 0 h). Food pellets were weighed at time intervals of 15, 30, 60, 120 and 240 min, and 24 h after the acute treatment.

## CCCCCCCC/C=C\CCCCCCCC(=O)NCCO [OEA, N-oleoylethanolamine]
OEA 1 mg/kg oral (i.g., 3 ml/kg) in G-F68, vs G-F68 group, p<0.01 at 240 min
  food intake: significant decrease in food intake
OEA 5 mg/kg i.p. in G-F68 (5% in saline), vs nanoemulsion group, p<0.001 at 15 min, p<0.05 at 30 min
  food intake: significant reduction on food intake
OEA 10 mg/kg i.p. in G-F68 (5% in saline), vs nanoemulsion group, p<0.001 at 15, 30 and 60 min
  food intake: significant reduction on food intake
OEA 10 mg/kg oral (i.g., 3 ml/kg) in G-F68, vs G-F68 group, p<0.05 at 240 min
  food intake: significant decrease in food intake
OEA 50 mg/kg oral (i.g., 3 ml/kg) in G-F68, vs G-F68 group, significant at 15, 30, 60, 120, 240 min and 24 h
  food intake: significant decrease in food intake
OEA 50 mg/kg oral (i.g., 3 ml/kg) prepared in Tween 20, vs vehicle Tween 20 group, p<0.05
  food intake: significant decrease in food intake only at 30 and 60 min
OEA 50 mg/kg oral (i.g., 3 ml/kg) within nanoemulsion G-F68, vs its vehicle group (Figure 7), 15 min to 24 h
  feeding: prolonged and significant reduction of feeding at all times
OEA i.p., the different doses (1, 5, 10 mg/kg) in G-F68, 24 h after administration, vs vehicle group
  cumulative food intake: no effects on cumulative food intake
